This is an account of results in article PMC11085086, “Microwave-Assisted Atom Transfer Radical Cyclization in the Synthesis of 3,3-Dichloro-γ- and δ-Lactams from N-Alkenyl-Tethered Trichloroacetamides Catalyzed by RuCl2(PPh3)3 and Their Cytotoxic Evaluation” (Molecules, 2024).

Data set [1] concerns murine Swiss albino fibroblasts (3T3). Nature of the data set: Cell viability assay, MTT endpoint, 3T3. The format is cell-based. The note with it: Mus musculus, Fibroblast, 3T3, 24 h incubation, 10–250 µg/mL. How it is done: (§1) The murine Swiss albino fibroblasts (3T3), the human breast adenocarcinoma (MCF-7), the human epithelial carcinoma (HeLa) and the squamous cell carcinoma (A431) cell lines were obtained from Celltec UB. Cells were grown in DMEM medium (4.5 g/L glucose) supplemented with 10% (v/v) FBS, 2 mM L-glutamine, 100 U/mL penicillin and 100 µg/mL streptomycin at 37 °C, 5% CO2. Cells were routinely cultured in 75 cm^2 culture flasks and were trypsinized using trypsin–EDTA when the cells reached approximately 80% confluence. The trypan blue assay, which allows for a direct identification and enumeration of the live (unstained) and dead (blue) cells in the cell population, was used to evaluate the viability of the cells in the cell suspension obtained.
(§2) 3T3 (1 × 10^5 cells/mL), A431, HeLa and MCF-7 cells (5 × 10^4 cells/mL) were grown at defined densities in the 60 central wells of a 96-well plate. Cells were incubated for 24 h in 5% CO2 at 37 °C. Then, the spent medium was removed, and cells were incubated for 24 h with their corresponding compound solutions (1 mg/mL) previously diluted in a minimum amount of DMF (dimethylformamide) and then in DMEM medium supplemented with 5% FBS (100 µL) at the required concentration range (10–250 µg/mL). The viability of the cells upon incubation with the lactam derivatives was assayed using 2 different endpoints: NRU and MTT.
(§3) Only living cells can reduce the yellow tetrazolium salt 3-(4,5-dimethyl-2-thiazolyl)-2,5-diphenyltetrazolium bromide (MTT) to insoluble purple formazan crystals. After a 24 h incubation of the cells with their corresponding NPs, the medium was removed and 100 µL of MTT (Sigma-Aldrich, St. Louis, USA) in PBS (5 mg/mL) diluted 1:10 in culture medium without phenol red and without FBS (Lonza, Verviers, Belgium) was added to the cells. After 3 h of incubation, the medium was removed. Thereafter, 100 µL of DMSO (Sigma-Aldrich, St. Louis, MO, USA) was added to each well to dissolve the purple formazan crystals. Agitation and determination of the absorbance of the extracted solution were performed under the same conditions as described in NRU Assay section. Finally, the effect of each treatment was calculated as the percentage of tetrazolium salt’s reduction by viable cells relative to control cells (cells without any treatment).
(§4) The corresponding half-maximal inhibitory concentration (IC50) values for the different formulations as a function of the cell line and endpoint were determined from the fitting of concentration-dependent viability curves. The corresponding selectivity indexes toward tumoral cells were calculated using the following ratio: SI = IC50 (non-tumoral cell line)/IC50 (tumoral cell line) where 3T3 fibroblasts were used as close representative cells under non-tumoral conditions. Moreover, pseudo selectivity indexes toward tumoral cells were calculated considering the discrete cellular responses at the maximum tested concentration (250 µg/mL).

A short description of data set [2]: Cell viability assay, MTT endpoint, 3T3. The data set is classed as cell-based, murine. To be noted: mouse, 3T3 fibroblasts, 3T3, 250 µg/mL, 24 h. How it is done:
as §1, §2, §3, §4

Data set [3] deals with human breast adenocarcinoma (MCF-7) cell line. In words: Cell viability assay, MTT endpoint, MCF-7. To be noted: MTT. The format is cell-based. The method, then: as §1, §2, §3, §4
Data set [4] concerns 3T3, A431, HeLa and MCF-7 cell lines. In words: Cell viability assays (MTT and NRU), endpoint and cell line not specified. The data set is classed as cell-based. To be noted: range over cell lines; read-out: lowest IC50 values as a function of cell line. How it is done: The murine Swiss albino fibroblasts (3T3), the human breast adenocarcinoma (MCF-7), the human epithelial carcinoma (HeLa) and the squamous cell carcinoma (A431) cell lines were obtained from Celltec UB. Cells were grown in DMEM medium (4.5 g/L glucose) supplemented with 10% (v/v) FBS, 2 mM L-glutamine, 100 U/mL penicillin and 100 µg/mL streptomycin at 37 °C, 5% CO2. Cells were routinely cultured in 75 cm^2 culture flasks and were trypsinized using trypsin–EDTA when the cells reached approximately 80% confluence. […]
The neutral red uptake (NRU) assay is based on the accumulation of dye in the lysosomes of viable cells. […] The absorbance of the resulting solutions was measured at 550 nm (Bio-Rad 550 microplate reader, Bio-Rad California, Hercules, CA, USA). Finally, the effect of each treatment was calculated as the percentage of dye uptake by viable cells relative to the control cells (cells without any treatment).
Only living cells can reduce the yellow tetrazolium salt 3-(4,5-dimethyl-2-thiazolyl)-2,5-diphenyltetrazolium bromide (MTT) to insoluble purple formazan crystals. […] Agitation and determination of the absorbance of the extracted solution were performed under the same conditions as described in NRU Assay section. Finally, the effect of each treatment was calculated as the percentage of tetrazolium salt’s reduction by viable cells relative to control cells (cells without any treatment). […]

Data set [5] relates to human breast adenocarcinoma (MCF-7) cell line. In words: Cell viability assay, NRU endpoint, MCF-7. The data set is classed as cell-based. To be noted: Homo sapiens, MCF7, 24 h incubation, 10–250 µg/mL. How it is done: as §1, §2
(§5) The neutral red uptake (NRU) assay is based on the accumulation of dye in the lysosomes of viable cells. After the cells were incubated for 24 h with the corresponding systems, the medium was removed, and the solutions were incubated with the NR dye (Sigma-Aldrich, St. Louis, MO, USA) solution (50 µg/mL) dissolved in the medium, without FBS and without phenol red (Lonza, Verviers, Belgium), for 3 h. Cells were then washed with sterile PBS, followed by the addition of 100 µL of a solution containing 50% absolute ethanol and 1% acetic acid in distilled water to extract the dye. To promote the total dissolution of the dye, plates were placed in a microtiter-plate shaker for 5 min at room temperature. The absorbance of the resulting solutions was measured at 550 nm (Bio-Rad 550 microplate reader, Bio-Rad California, Hercules, CA, USA). Finally, the effect of each treatment was calculated as the percentage of dye uptake by viable cells relative to the control cells (cells without any treatment).
as §4

Data set [6] has as its system human epithelial carcinoma (HeLa) cell line. In words: Cell viability assay, NRU endpoint, HeLa. The format is cell-based. The note with it: 24 h incubation, 10–250 µg/mL. The method, then: as §1, §2, §5, §4
Data set [7] can be described thus: Cell viability assay, NRU endpoint, cell line not specified. The format is cell-based. To be noted: up to 250 µg/mL, read-out: minimum cell viability values. The method, then:
as §1, §2, §5

Data set [8] is described as follows: Hemolysis assay with human erythrocyte suspension. The data set is classed as cell-based. The note with it: human, washed human erythrocyte suspension, PBS pH 7.4, read-out: degree of hemolysis. How it is done:
Human blood samples were obtained from the Banc de Sang i Teixits de Barcelona (Spain) from the Catalan Department of Health. Blood was deposited in tubes with the anticoagulant EDTA-K3. Blood samples were centrifuged at 3000 rpm and 4 °C for 10 min (Megafuge 2.0 R. Heraeus Instruments, Hanau, Germany) to induce sedimentation. Plasma was extracted with a Pasteur pipette. Next, the residual pellet was washed with PBS at pH 7.4. This procedure was repeated three times to remove residual leukocytes and platelets and to concentrate the erythrocytes. Following the last wash, the erythrocyte suspension was diluted (1:1) in PBS at pH 7.4 to obtain a suitable erythrocyte suspension (cell density of 8 × 10^9 cell/mL).
The hemolysis assay determined the capability of different compounds to induce the hemolysis of the erythrocyte membrane. Stock solutions of each compound at 1 mg/mL in PBS at pH 7.4 were prepared. Different volumes (10–80 μL) were placed in polystyrene tubes, and an aliquot of 25 µL of the erythrocyte suspensions was added to each tube. The final volume was 1 mL. The tubes were incubated at room temperature under rotatory conditions. Then, the tubes were centrifuged at 10,000 rpm for 5 min. The supernatants’ absorbance at 540 nm (Shimadzu UV-160A, Shimadzu, Duisburg, Germany) was compared with that of the positive (erythrocytes hemolyzed with distilled water) and negative (erythrocyte suspension in PBS at pH 7.4.) controls.
The degree of hemolysis was determined using the following equation:Hemolysis (%) = 100 × (Abs − Abs0)/(Abs100 − Abs0) where Abs, Abs0 and Abs100 are the absorbance of the test samples, of the suspension treated with isotonic phosphate–buffered saline (PBS) and of the suspension of complete hemolysis treated with distilled water, respectively.

Data set [9] deals with squamous cell carcinoma (A431) cell line. Nature of the data set: Cell viability assay, NRU endpoint, A431. The data set is classed as cell-based. The note with it: A431 compared to 3T3, 250 µg/mL, 24 h. How it is done:
as §1, §2, §5, §4

Data set [10] has the same test system. In words: Cell viability assay, MTT endpoint, A431. The format is cell-based. How it is done: as §1, §2, §3, §4
Data set [11] in a line: Cell viability assay, MTT endpoint, A431. The format is cell-based. To be noted: human, A431 squamous cell carcinoma cells, A431, highest assayed concentration 250 µg/mL, 24 h. The method, then: as §1, §2, §3, §4
The subject of data set [12] is murine Swiss albino fibroblasts (3T3). In words: Cell viability assay, NRU endpoint, 3T3. The note with it: Mus musculus, Fibroblast, 3T3, 24 h incubation, 10–250 µg/mL. The format is cell-based. How it is done: as §1, §2, §5, §4
Data set [13] has as its system human epithelial carcinoma (HeLa) cell line. Nature of the data set: Cell viability assay, MTT endpoint, HeLa. The format is cell-based. The method, then: as §1, §2, §3, §4
Data set [14] is described as follows: Cell viability assay, MTT endpoint, HeLa. To be noted: human, HeLa cells, HeLa, 250 µg/mL, 24 h. The data set is classed as cell-based, human. The method, then: as §1, §2, §3, §4

In brackets after ≈: the same amount, converted by molar mass.

As for `O=C1N(Cc2ccccc2)[C@@H]2CC[C@@H](Cl)[C@@H](C2)C1(Cl)Cl` (racemic) [2k, (1RS,5RS,6RS)-2-Benzyl-4,4,6-trichloro-2-azabicyclo[3.3.1] nonan-3-one], the melting point (in general, the temperature, or range, at which the solid turns liquid) fell in the range of 116 to 118 °C.

`C[C@@H](Cl)[C@H]1CN(C(C)(C)C)C(=O)C1(Cl)Cl` (racemic) [epi-2g, (RS)-1-(tert-Butyl)-3,3-dichloro-4-((RS)-1-chloroethyl)pyrrolidin-2-one] gave a melting point of 113 to 114 °C.

On to `CC(C)(C)N1CC(CCl)C(Cl)(Cl)C1=O` (centres unmarked) [2a, 1-(tert-Butyl)-3,3-dichloro-4-(chloromethyl)pyrrolidin-2-one], for which the IC50 – broadly, the midpoint of a concentration-inhibition curve – in data set [1] is 172 µg/mL (≈ 665 µM); in [3] (Homo sapiens, MCF7, 24 h incubation, 10–250 µg/mL), above 250 µg/mL; in [4] it was 100 to 250 µg/mL (≈ 387 to 967 µM); in data set [5], above 250 µg/mL; in data set [6], above 250 µg/mL; in data set [10] (Homo sapiens, A-431, 24 h, A431, 24 h incubation, 10–250 µg/mL), 192 µg/mL (≈ 743 µM). Also, the IC50 in data set [12] is above 250 µg/mL; in data set [13] (Homo sapiens, HeLa, 24 h, 24 h incubation, 10–250 µg/mL) it was 195 µg/mL (≈ 754 µM). Further, the viability (usually a per cent measure of how many cells are alive, often set against a control) at 24 h, 250 µg/mL in data set [2] was 15%; in [11], 5%; in data set [14], 15%. Also, in [3] (SI = IC50 (3T3)/IC50 (MCF7)), the “MTT SI MCF7” value was below 0.69. The viability at 24 h in [7] turned out to be 30%. Moreover, the hemolysis at 10 µg/mL in data set [8] (10 µg/mL) was determined as 0.02%. For the same molecule, the hemolysis at 80 µg/mL in data set [8] (80 µg/mL) is around 0.07%. Moreover, the “SI250 (selective toxicity at 250 µg/mL)” value in [9] is 2.2; in [10] (A431 compared to 3T3, 250 µg/mL, 24 h), 3.3. In addition, the “MTT IC50 A431” value in data set [10] (A431, 24 h incubation, 10–250 µg/mL) is 126 µg/mL. In addition, the “MTT SI A431” value in data set [10] (SI = IC50 (3T3)/IC50 (A431)) came to 1.4. Also, in [13] (HeLa, 24 h incubation, 10–250 µg/mL), the “MTT IC50 Hela” value is recorded as 109 µg/mL. Besides, the “MTT SI HeLa” value in data set [13] (SI = IC50 (3T3)/IC50 (HeLa)) is listed as below 1.
